{"source": "patent US20170252311A1", "about": "“SPHINGOSINE KINASE INHIBITORS AND CERAMIDE FOR MAINTENANCE THERAPY OF GLIOBLASTOMA” (SignPath Pharma Inc., priority 2016, published 2017)", "origin": "cited, not measured here", "key": {"tumor": {"test_system": "tumor", "settings": "single agent"}, "[1]": {"biological_target": "GCS (glucosylceramide synthase) (Homo sapiens, UniProt Q16739)", "sequence (Q16739 whole entry, species assumed)": "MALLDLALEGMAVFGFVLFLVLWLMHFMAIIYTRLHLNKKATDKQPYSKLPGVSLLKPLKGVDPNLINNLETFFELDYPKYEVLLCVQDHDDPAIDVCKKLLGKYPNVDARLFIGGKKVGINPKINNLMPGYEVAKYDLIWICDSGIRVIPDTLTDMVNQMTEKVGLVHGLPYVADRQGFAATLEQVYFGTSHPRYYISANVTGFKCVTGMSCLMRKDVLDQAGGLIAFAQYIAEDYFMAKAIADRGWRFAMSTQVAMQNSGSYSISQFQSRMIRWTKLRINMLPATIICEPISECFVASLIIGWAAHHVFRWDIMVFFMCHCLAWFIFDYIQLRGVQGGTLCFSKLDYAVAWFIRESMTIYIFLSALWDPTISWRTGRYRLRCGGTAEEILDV"}, "SK (sphingosine kinase)": {"test_system": "SK (sphingosine kinase)", "settings": "arrow down = decrease, arrow up = increase (not defined in patent)"}, "[2]": {"biological_target": "T1, Acid Cer (Acid ceramidase) (Homo sapiens, UniProt Q13510)", "T1 sequence (Q13510 22-395)": "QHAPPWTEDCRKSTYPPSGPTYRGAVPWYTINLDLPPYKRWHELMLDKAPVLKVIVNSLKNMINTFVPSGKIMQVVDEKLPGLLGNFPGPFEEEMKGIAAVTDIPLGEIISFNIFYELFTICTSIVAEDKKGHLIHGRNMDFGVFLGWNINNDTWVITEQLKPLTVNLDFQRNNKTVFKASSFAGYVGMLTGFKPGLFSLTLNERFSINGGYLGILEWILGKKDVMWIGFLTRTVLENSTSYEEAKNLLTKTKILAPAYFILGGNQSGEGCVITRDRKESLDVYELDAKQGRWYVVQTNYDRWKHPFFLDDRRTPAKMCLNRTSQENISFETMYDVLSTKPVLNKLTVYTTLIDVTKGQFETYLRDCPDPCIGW"}, "[3]": {"test_system": "JC mouse mammary adenocarcinoma cell line"}, "[4]": {"test_system": "JC mammary adenocarcinoma cells", "settings": "syngeneic BALB/c mouse solid tumor model of JC cells"}, "[5]": {"test_system": "Cer Syn (ceramide synthase)"}, "[6]": {"test_system": "SPT (serine palmitoyltransferase)"}, "[7]": {"test_system": "xenograft prostate cancer models"}, "[8]": {"test_system": "prostate cancer cell lines and TRAMP-C2 xenografts"}, "SK2": {"biological_target": "SK2 (Homo sapiens, UniProt Q9NRA0)", "sequence (Q9NRA0 whole entry)": "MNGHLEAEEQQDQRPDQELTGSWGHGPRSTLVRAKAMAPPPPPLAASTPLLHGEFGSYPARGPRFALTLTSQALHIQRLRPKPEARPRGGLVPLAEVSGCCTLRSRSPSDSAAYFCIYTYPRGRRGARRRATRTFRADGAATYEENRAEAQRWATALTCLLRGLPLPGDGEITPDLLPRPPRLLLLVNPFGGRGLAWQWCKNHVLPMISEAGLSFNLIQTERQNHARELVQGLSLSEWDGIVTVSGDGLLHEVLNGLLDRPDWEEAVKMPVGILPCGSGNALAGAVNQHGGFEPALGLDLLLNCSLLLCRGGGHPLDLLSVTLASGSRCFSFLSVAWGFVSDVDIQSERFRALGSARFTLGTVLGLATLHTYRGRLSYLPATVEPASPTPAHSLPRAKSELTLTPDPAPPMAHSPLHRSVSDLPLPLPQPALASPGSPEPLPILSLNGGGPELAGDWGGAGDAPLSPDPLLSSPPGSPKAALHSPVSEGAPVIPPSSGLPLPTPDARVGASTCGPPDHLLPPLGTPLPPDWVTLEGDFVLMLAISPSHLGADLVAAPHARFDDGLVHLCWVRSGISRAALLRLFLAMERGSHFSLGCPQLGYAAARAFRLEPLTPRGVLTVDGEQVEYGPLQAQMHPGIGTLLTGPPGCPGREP", "settings": "selectivity"}, "protein kinase B": {"test_system": "protein kinase B", "settings": "selectivity"}, "[9]": {"test_system": "LN229 and U373 glioblastoma cell lines, non-established human GBM6 cells, and GBM xenografts"}, "[10]": {"test_system": "other serine/threonine kinases", "settings": "selectivity"}, "protein kinase C": {"test_system": "protein kinase C", "settings": "selectivity"}, "[11]": {"test_system": "LN229 intracranial xenografts"}, "[12]": {"test_system": "human leukemic cell lines and acute myelogenous leukemia xenografts", "settings": "human leukemic cell lines and AML xenografts"}, "[13]": {"test_system": "GTP cyclohydrolase (GTPCH)", "settings": "C6 glioma cell line"}, "[14]": {"test_system": "U87MG, U1242MG, M059K cell lines", "settings": "in all three lines"}}, "note": "Read-outs that look alike come from different tables or passages of the source."}
{"compound": "CCCCCCCCCCCCC/C=C/[C@@H](O)[C@H](CO)[N+](C)(C)C", "note": "[N,N,N-trimethylsphingosine]", "values": [{"measurement": "anti-tumor activity alone", "setting": "tumor", "result": "did not appear to have significant anti-tumor activity alone"}]}
{"compound": "OC(c1cc(C(F)(F)F)nc2c(C(F)(F)F)cccc12)C1CCCCN1", "note": "(stereo not drawn) [Mefloquine]", "values": [{"measurement": "Sphingolipid Enzymes Affected: SMase", "setting": "SMase (Sphingomyelinase)", "result": "↑↓Smase"}, {"measurement": "Sphingolipid Enzymes Affected: GCS", "setting": "[1]", "result": "↑GCS"}, {"measurement": "Sphingolipid Enzymes Affected: SK", "setting": "SK (sphingosine kinase)", "result": "↓SK"}, {"measurement": "Sphingolipid Enzymes Affected: Acid Cer", "setting": "[2]", "result": "↓Acid Cer"}, {"measurement": "Sphingolipid Enzymes Affected: SM Syn", "setting": "SM Syn", "result": "↓SM Syn"}]}
{"compound": "O=C(NN=Cc1c(O)ccc2ccccc12)c1cc(-c2ccc3ccccc3c2)n[nH]1", "note": "[SKI-I, 5-naphthalen-2-yl-2H-pyrazole-3-carboxylic acid (2-hydroxy-naphthalen-1-ylmethylene)-hydrazide]", "values": [{"measurement": "anti-tumor activity", "setting": "[3]", "result": "anti-tumor activity"}, {"measurement": "anti-tumor activity", "setting": "[4]", "result": "anti-tumor activity"}]}
{"compound": "Cc1cn(-c2cc(NC(=O)c3ccc(C)c(Nc4nccc(-c5cccnc5)n4)c3)cc(C(F)(F)F)c2)cn1", "note": "[Nilotinib]", "values": [{"measurement": "Sphingolipid Enzymes Affected: SK", "setting": "SK (sphingosine kinase)", "result": "↓SK"}, {"measurement": "Sphingolipid Enzymes Affected: Cer Syn", "setting": "[5]", "result": "↑Cer Syn"}]}
{"compound": "COc1cc(/C=C/C(=O)CC(=O)/C=C/c2ccc(O)c(OC)c2)ccc1O", "note": "[Curcumin]", "values": [{"measurement": "Sphingolipid Enzymes Affected: SK", "setting": "SK (sphingosine kinase)", "result": "↓SK"}, {"measurement": "Sphingolipid Enzymes Affected: SPT", "setting": "[6]", "result": "↑SPT"}, {"measurement": "Sphingolipid Enzymes Affected: Cer Syn", "setting": "[5]", "result": "↑Cer Syn"}]}
{"compound": "CC/C(=C(\\c1ccccc1)c1ccc(OCCN(C)C)cc1)c1ccccc1", "note": "[tamoxifen]", "values": [{"measurement": "Sphingolipid Enzymes Affected: Acid Cer", "setting": "[2]", "result": "decreases acid ceramidase"}]}
{"compound": "O=C(NCc1ccncc1)C12CC3CC(C1)CC(c1ccc(Cl)cc1)(C3)C2", "note": "[ABC294640, 3-(4-chlorophenyl)-adamantane-1-carboxylic acid (pyridin-4-ylmethyl) amide]", "values": [{"measurement": "cancer growth", "setting": "[7]", "result": "significantly blocked cancer growth"}, {"measurement": "cell viability", "setting": "[8]", "result": "reduced cell viability"}, {"measurement": "expression of c-myc", "setting": "[8]", "result": "decreased expression of c-myc"}]}
{"compound": "Cc1ccc(NC(=O)c2ccc(CN3CCN(C)CC3)cc2)cc1Nc1nccc(-c2cccnc2)n1", "note": "[Imatinib]", "values": [{"measurement": "Sphingolipid Enzymes Affected: SK", "setting": "SK (sphingosine kinase)", "result": "↓SK"}, {"measurement": "Sphingolipid Enzymes Affected: Cer Syn", "setting": "[5]", "result": "↑Cer Syn"}]}
{"compound": "CCCCCc1ccc(/C=C/[C@H](O)[C@@H](CO)NC)cc1", "note": "[SK1-I, (2R,3S,4E)-N-methyl-5-(4′-pentylphenyl)-2-aminopent-4-ene-1,3-diol]", "values": [{"measurement": "inhibition of SK2", "setting": "SK2", "result": "does not inhibit"}, {"measurement": "inhibition of protein kinase B", "setting": "protein kinase B", "result": "does not inhibit"}, {"measurement": "apoptosis", "setting": "[9]", "result": "prompts apoptosis"}, {"measurement": "protein kinase B (Akt) signaling", "setting": "[9]", "result": "inhibits protein kinase B (Akt) signaling"}, {"measurement": "tumor development", "setting": "[9]", "result": "suppresses tumor development"}, {"measurement": "cell growth", "setting": "GBM6 cell lines", "result": "Reduced cell growth"}, {"measurement": "epidermal growth factor-stimulated phosphorylation of Akt", "setting": "GBM6 cell lines", "result": "Reduced"}, {"measurement": "inhibition of other serine/threonine kinases", "setting": "[10]", "result": "does not inhibit"}, {"measurement": "inhibition of protein kinase C", "setting": "protein kinase C", "result": "does not inhibit"}, {"measurement": "cell growth", "setting": "LN229, U373 cell lines", "result": "Inhibited cell growth"}, {"measurement": "migration", "setting": "LN229, U373 cell lines", "result": "Inhibited"}, {"measurement": "angiogenesis", "setting": "[11]", "result": "Reduced"}, {"measurement": "apoptosis", "setting": "[11]", "result": "Caused apoptosis"}, {"measurement": "tumor growth rate", "setting": "[11]", "result": "Reduced tumor growth rate."}, {"measurement": "apoptosis", "setting": "[12]", "result": "induced apoptosis"}, {"measurement": "tumor growth", "setting": "[12]", "result": "blocked tumor growth"}]}
{"compound": "CCCCCCCCCCCCCCC[C@H](O)[C@@H](N)CO", "note": "[safingol, D,L-threodihydrosphingosine]", "values": [{"measurement": "anti-tumor activity alone", "setting": "tumor", "result": "did not appear to have significant anti-tumor activity alone"}]}
{"compound": "Oc1ccc(C=Cc2cc(O)cc(O)c2)cc1", "note": "[Resveratrol]", "values": [{"measurement": "Sphingolipid Enzymes Affected: SK", "setting": "SK (sphingosine kinase)", "result": "↓SK"}, {"measurement": "Sphingolipid Enzymes Affected: SPT", "setting": "[6]", "result": "↑SPT"}, {"measurement": "Sphingolipid Enzymes Affected: Cer Syn", "setting": "[5]", "result": "↑Cer Syn"}]}
{"compound": "O=C1C(=Cc2ccc(O)c(O)c2)Oc2ccccc21", "note": "[SKI-V, 2-(3,4-dihydroxy-benzylidene)-benzofuran-3-one]", "values": [{"measurement": "anti-tumor activity", "setting": "[3]", "result": "anti-tumor activity"}, {"measurement": "anti-tumor activity", "setting": "[4]", "result": "anti-tumor activity"}]}
{"compound": "CCN(CC)CCCC(C)Nc1ccnc2cc(Cl)ccc12", "note": "(stereo not drawn) [Chloroquine]", "values": [{"measurement": "Sphingolipid Enzymes Affected: SMase", "setting": "SMase (Sphingomyelinase)", "result": "↑↓Smase"}, {"measurement": "Sphingolipid Enzymes Affected: GCS", "setting": "[1]", "result": "↑GCS"}, {"measurement": "Sphingolipid Enzymes Affected: SK", "setting": "SK (sphingosine kinase)", "result": "↓SK"}, {"measurement": "Sphingolipid Enzymes Affected: Acid Cer", "setting": "[2]", "result": "↓Acid Cer"}, {"measurement": "Sphingolipid Enzymes Affected: SM Syn", "setting": "SM Syn", "result": "↓SM Syn"}]}
{"compound": "CCCCCCCCCCCCC/C=C/[C@@H](O)[C@H](CO)N(C)C", "note": "[N,N-dimethylshingosine]", "values": [{"measurement": "tumor necrosis factor-α induced GTP cyclohydrolase (GTPCH) activity", "setting": "[13]", "result": "Suppressed tumor necrosis"}]}
{"compound": "Oc1ccc(Nc2nc(-c3ccc(Cl)cc3)cs2)cc1", "note": "[SKI-II, 4-[4-(4-chloro-phenyl)-thiazol-2-ylamino]-phenol]", "values": [{"measurement": "anti-tumor activity", "setting": "[3]", "result": "anti-tumor activity"}, {"measurement": "cellular proliferation", "setting": "[14]; listed as 2-(p-Hdroxyanilino)-4-(p-chlorophenyl)thiazole", "result": "Decreased cellular proliferation"}, {"measurement": "cellular proliferation", "setting": "[14]; listed as 2-(p-Hydroxyanilino)-4-(p-chlorophenyl)thiazole", "result": "significantly decreased the rate of proliferation"}, {"measurement": "cancer cell death", "setting": "U251MG, D54MG cell lines; TMZ resistant GBM cell lines U251 and D54MG", "result": "promote cancer cell death"}, {"measurement": "activity in cell lines made resistant to TMZ", "setting": "U251MG, D54MG cell lines; U251MG, D54MG", "result": "Active in cell lines mde resistant"}, {"measurement": "expression of urokinase plasminogen activator", "setting": "U118MG cell line", "result": "Blocked"}, {"measurement": "invasiveness", "setting": "U118MG cell line", "result": "Decreased invasiveness"}, {"measurement": "cell cycle (accumulation of cells at G1)", "setting": "U98G cell line", "result": "accumulation of cells at G1."}, {"measurement": "proliferation", "setting": "U98G cell line", "result": "Decreased proliferation. Caused"}, {"measurement": "anti-tumor activity", "setting": "[4]", "result": "especially effective"}]}
